According to ChEMBL document CHEMBL4831557, “Parthenolide Derivatives as PKM2 Activators Showing Potential in Colorectal Cancer” (J Med Chem, 2021):
The source made the active and inactive calls. No cut-off for these calls is given here.

How the values were obtained:
HT-29 [1] = experiment: Inhibition of epithelial-mesenchymal transition in human HT-29 cells assessed as change in Snail-2 expression; format: functional, cell-based
HT-29 [2] = experiment: Inhibition of colony formation in human HT-29 cells incubated for 14 days by crystal violet staining based analysis; format: functional, cell-based; details: dose 0.15-0.3 µM, time 14.0 day
A549 = experiment: cells; details: Homo sapiens, A549, 48 h
Pyruvate kinase PKM [3] = biological target: T1, Pyruvate kinase PKM (Homo sapiens, UniProt P14618); experiment: Inhibition of PKM2/STAT3 in human HT-29 cells assessed as decrease in phosphorylated STAT3 level at 0.45 to 1.8 uM after 48 hrs by Western blot analysis; format: cell-based; details: dose 0.45-1.8 µM
Target sequence in this assay (P14618 2-531 limits assumed): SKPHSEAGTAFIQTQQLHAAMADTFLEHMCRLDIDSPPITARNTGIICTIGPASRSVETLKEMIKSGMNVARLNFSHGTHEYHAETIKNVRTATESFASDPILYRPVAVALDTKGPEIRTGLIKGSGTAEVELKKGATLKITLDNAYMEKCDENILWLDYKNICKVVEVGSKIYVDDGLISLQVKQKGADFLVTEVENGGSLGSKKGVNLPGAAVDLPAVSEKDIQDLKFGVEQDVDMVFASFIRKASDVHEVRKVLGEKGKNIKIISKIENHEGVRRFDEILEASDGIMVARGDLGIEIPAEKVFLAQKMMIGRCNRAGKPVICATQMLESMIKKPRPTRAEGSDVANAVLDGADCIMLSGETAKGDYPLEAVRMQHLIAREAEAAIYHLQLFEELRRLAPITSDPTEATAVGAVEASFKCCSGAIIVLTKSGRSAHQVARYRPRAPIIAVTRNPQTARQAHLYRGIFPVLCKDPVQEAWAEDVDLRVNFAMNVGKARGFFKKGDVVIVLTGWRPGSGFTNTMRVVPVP

SW480 [4] = experiment: Induction of apoptosis in human SW480 cells after 48 hrs by Annexin V-PE and 7-AAD staining based flow cytometric analysis; format: functional, cell-based; details: dose 0.2-0.8 µM
Pyruvate kinase PKM [5] = biological target: T1, Pyruvate kinase PKM; experiment: Activation of PKM2 in human HT-29 cells assessed as increase in PKM2 tetramer formation by dynamic laser light scattering analysis; format: cell-based; details: filed as activator
Target sequence in this assay (P14618 2-531 limits assumed): as above

HT-29 [6] = experiment: Antitumor activity against human HT-29 cells xenografted in BALB/c mouse assessed as reduction in tumor growth at 15 to 30 mg/kg, ip administered once every 2 days for 2 weeks by vernier caliper method; format: functional, organism-based; details: dose 15-30 mg/kg
HT-29 [7] = experiment: Effect on total PKM2 protein expression in nucleus of human HT-29 cells at 0.45 to 1.8 uM after 48 hrs by Western blot analysis; format: functional, cell-based; details: dose 0.45-1.8 µM
HT-29 [8] = experiment: Induction of apoptosis in PKM2 knock down human HT-29 cells at 0.45 to 1.8 uM; format: functional, cell-based; details: dose 0.45-1.8 µM
HT-29 [9] = experiment: Induction of cell cycle arrest in human HT-29 cells assessed as accumulation of cells at G2/M phase after 48 hrs by PI staining based flow cytometric analysis; format: functional; details: dose 0.45-1.8 µM
SW480 [10] = experiment: Induction of cell cycle arrest in human […] cells assessed as accumulation of cells at G2/M phase after 48 hrs by PI staining based flow cytometric analysis; format: functional; details: dose 0.2-0.6 µM
Pyruvate kinase PKM [11] = biological target: T1, Pyruvate kinase PKM; experiment: Binding affinity to recombinant human PKM2 assessed as covalent adduct formation incubated for 1 hr by LC-MS/MS analysis; details: filed as activator
Target sequence in this assay (P14618 2-531 limits assumed): as above

Pyruvate kinase PKM [12] = biological target: T1, Pyruvate kinase PKM; experiment: Activation of recombinant human PKM2 at 10 uM incubated 30 mins by fluorescence microplate reader analysis; details: filed as activator
Target sequence in this assay (P14618 2-531 limits assumed): as above

HCT-116 = experiment: Cytotoxicity against human HCT-116 cells assessed as reduction in cell viability incubated for 48 hrs by MTT assay; format: functional, cell-based; details: HCT-116, 48 h
Pyruvate kinase PKM [13] = biological target: T1, Pyruvate kinase PKM; experiment: Activation of recombinant human PKM2 incubated 30 mins by fluorescence microplate reader analysis
Target sequence in this assay (P14618 whole entry): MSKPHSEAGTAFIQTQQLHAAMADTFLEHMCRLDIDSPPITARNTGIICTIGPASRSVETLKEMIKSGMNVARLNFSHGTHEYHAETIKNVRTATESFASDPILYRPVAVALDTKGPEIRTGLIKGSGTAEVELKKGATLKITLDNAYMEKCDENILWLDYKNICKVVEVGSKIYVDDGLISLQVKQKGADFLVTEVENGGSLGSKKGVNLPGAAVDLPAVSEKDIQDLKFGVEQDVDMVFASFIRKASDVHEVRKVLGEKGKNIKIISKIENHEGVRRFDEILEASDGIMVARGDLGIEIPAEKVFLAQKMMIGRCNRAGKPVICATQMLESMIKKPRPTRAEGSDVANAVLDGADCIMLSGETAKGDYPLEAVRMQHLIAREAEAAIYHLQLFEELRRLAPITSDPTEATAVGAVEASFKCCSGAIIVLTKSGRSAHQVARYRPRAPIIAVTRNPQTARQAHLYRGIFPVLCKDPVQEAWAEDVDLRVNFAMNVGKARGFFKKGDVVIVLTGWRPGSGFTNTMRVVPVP

MDA-MB-231 = experiment: Cytotoxicity against human MDA-MB-231 cells assessed as reduction in cell viability incubated for 48 hrs by MTT assay; format: functional, cell-based; details: MDA-MB-231, 48 h
Pyruvate kinase PKM [14] = biological target: T1, Pyruvate kinase PKM; experiment: Activation of PKM2 in human HT-29 cells assessed as increase in cell basal respiration; format: cell-based; details: filed as activator
Target sequence in this assay (P14618 2-531 limits assumed): as the sequence (P14618 2-531 limits assumed) above

HT-29 [15] = experiment: Induction of apoptosis in human HT-29 cells after 48 hrs by Annexin V-PE and 7-AAD staining based flow cytometric analysis; format: functional, cell-based; details: dose 0.45-1.8 µM
U2OS = experiment: Cytotoxicity against human U2OS cells assessed as reduction in cell viability incubated for 48 hrs by MTT assay; format: functional, cell-based
Pyruvate kinase PKM [16] = biological target: T1, Pyruvate kinase PKM; experiment: Inhibition of PKM2/STAT3 in human HT-29 cells assessed as reduction in bcl-xl protein expression at 0.45 to 1.8 uM incubated for 48 hrs by Western blot analysis; format: cell-based; details: dose 0.45-1.8 µM
Target sequence in this assay (P14618 2-531 limits assumed): as above

HT-29 [17] = experiment: Effect on mitochondrial membrane potential in human HT-29 cells at 0.45 to 1.8 uM measured after 48 hrs by JC-1 staining based assay; format: functional, cell-based; details: dose 0.45-1.8 µM
Pyruvate kinase PKM [18] = biological target: T1, Pyruvate kinase PKM; experiment: Activation of PKM2 in human HT-29 cells assessed as decrease in extracellular acidification rate; format: cell-based; details: filed as activator
Pyruvate kinase PKM [19] = biological target: T1, Pyruvate kinase PKM; experiment: Inhibition of PKM2 dimer nuclear translocation in human HT-29 cells by immunostaining based analysis; format: cell-based
NCM460 = experiment: Cytotoxicity against human NCM460 cells assessed as reduction in cell viability incubated for 48 hrs by MTT assay; format: cell-based; details: NCM460, 48 h
HT-29 [20] = experiment: Inhibition of epithelial-mesenchymal transition in human HT-29 cells assessed as change in E-cadherin expression; format: functional, cell-based
HT-29 [21] = experiment: Induction of apoptosis in human HT-29 cells assessed as increase in cleaved caspase-3 expression at 0.45 to 1.8 uM after 48 hrs by Western blotting analysis; format: functional, cell-based; details: dose 0.45-1.8 µM
Pyruvate kinase PKM [22] = biological target: T1, Pyruvate kinase PKM; experiment: Inhibition of PKM2/STAT3 in human HT-29 cells assessed as reduction in cyclin-D1 protein expression at 0.45 to 1.8 uM incubated for 48 hrs by Western blot analysis; format: cell-based; details: dose 0.45-1.8 µM
Pyruvate kinase PKM [23] = biological target: T1, Pyruvate kinase PKM; experiment: Inhibition of PKM2/STAT3 in human HT-29 cells assessed as decrease in total STAT3 level at 0.45 to 1.8 uM after 48 hrs by Western blot analysis; format: cell-based; details: dose 0.45-1.8 µM
SW480 [24] = experiment: Induction of intracellular ROS production in human SW480 cells at 0.2 to 0.6 uM incubated for 48 hrs by DCFH-DA staining based flow cytometry analysis; format: functional, cell-based; details: dose 0.2-0.6 µM
Pyruvate kinase PKM [25] = biological target: T1, Pyruvate kinase PKM; experiment: Inhibition of PKM2/STAT3 in human HT-29 cells assessed as reduction in bcl2 protein expression at 0.45 to 1.8 uM incubated for 48 hrs by Western blot analysis; format: cell-based; details: dose 0.45-1.8 µM
HT-29 [26] = experiment: Induction of intracellular ROS production in human HT-29 cells at 0.45 to 1.8 uM incubated for 48 hrs by DCFH-DA staining based flow cytometry analysis; format: functional, cell-based; details: dose 0.45-1.8 µM
HT-29 [27] = experiment: Antimigratory activity against human HT-29 cells; format: functional, cell-based
HT-29 [28] = experiment: Induction of apoptosis in human HT-29 cells assessed as increase in cleaved PARP expression at 0.45 to 1.8 uM after 48 hrs by Western blotting analysis; format: functional, cell-based; details: dose 0.45-1.8 µM
HT-29 [29] = experiment: Effect on total PKM2 protein expression in cytoplasm of human HT-29 cells at 0.45 to 1.8 uM after 48 hrs by Western blot analysis; format: functional, cell-based; details: dose 0.45-1.8 µM
HepG2 = experiment: Cytotoxicity against human HepG2 cells assessed as reduction in cell viability incubated for 48 hrs by MTT assay; format: functional, cell-based; details: HepG2, 48 h
HT-29 [30] = experiment: Induction of apoptosis in human HT-29 cells assessed as decrease in PARP expression at 0.45 to 1.8 uM after 48 hrs by Western blotting analysis; format: functional, cell-based; details: dose 0.45-1.8 µM
SW480 [31] = experiment: Effect on mitochondrial membrane potential in human SW480 cells at 0.2 to 0.6 uM measured after 48 hrs by JC-1 staining based assay; format: functional, cell-based; details: dose 0.2-0.6 µM
HT-29 [32] = experiment: Antitumor activity against human HT-29 cells xenografted in BALB/c mouse assessed as reduction in tumor weight at 15 to 30 mg/kg, ip administered once every two days for 2 weeks by vernier caliper method; format: functional, organism-based; details: dose 15-30 mg/kg
SW480 [33] = experiment: Antimigratory activity against human SW480 cells; format: functional, cell-based
Pyruvate kinase PKM [34] = biological target: T1, Pyruvate kinase PKM; experiment: Inhibition of PKM2/STAT3 in human HT-29 cells assessed as reduction in C-myc protein expression at 0.45 to 1.8 uM incubated for 48 hrs by Western blot analysis; format: cell-based; details: dose 0.45-1.8 µM
HT-29 [35] = experiment: Induction of apoptosis in human HT-29 cells assessed as decrease in caspase-3 expression at 0.45 to 1.8 uM after 48 hrs by Western blotting analysis; format: functional, cell-based; details: dose 0.45-1.8 µM
Pyruvate kinase PKM [36] = biological target: T1, Pyruvate kinase PKM; experiment: Activation of PKM2 in human HT-29 cells assessed as decrease in lactic acid production; format: cell-based; details: filed as activator

In the case of `C=C1C(=O)O[C@H]2[C@H]1CC/C(COC(=O)c1ccc3nccc(Br)c3c1)=C/CC[C@@]1(C)O[C@@H]21`, the inhibition (HT-29 [1]) is reported as “inactive”, the inhibition (HT-29 [2]) is reported as “Dose-Dependent Effect” and the IC50 (A549) is reported as 1670 nM. For the same compound, the inhibition (Pyruvate kinase PKM [3]) was “Active”, the Activity (SW480 [4]) was “Dose-Dependent Effect” and the Activity (Pyruvate kinase PKM [5]) was “Active”. For the same compound, the Activity (HT-29 [6]) was “Active”, the Activity (HT-29 [7]) was “Active” and the Activity (HT-29 [8]) was “inactive”. The Activity (HT-29 [9]) was “Dose-Dependent Effect”, the Activity (SW480 [10]) was “Dose-Dependent Effect” and the Activity (Pyruvate kinase PKM [11]) was “Active”. For the same compound, the Activity (Pyruvate kinase PKM [12]) was “Active”, the IC50 (HCT-116) was 1000 nM and the AC50 (Pyruvate kinase PKM [13]) was 86.3 nM. For the same compound, the IC50 (MDA-MB-231) was 1030 nM, the Activity (Pyruvate kinase PKM [14]) was “Active” and the Activity (HT-29 [15]) was “Dose-Dependent Effect”. For the same compound, the IC50 (U2OS) was 1790 nM, the inhibition (Pyruvate kinase PKM [16]) was “Active” and the Activity (HT-29 [17]) was “Active”. For the same compound, the Activity (Pyruvate kinase PKM [18]) was “Active”, the inhibition (Pyruvate kinase PKM [19]) was “Active” and the IC50 (NCM460) was 2020 nM. The inhibition (HT-29 [20]) was “inactive”, the Activity (HT-29 [21]) was “Active” and the inhibition (Pyruvate kinase PKM [22]) was “Active”. For the same compound, the inhibition (Pyruvate kinase PKM [23]) was “Active”, the Activity (SW480 [24]) was “Active” and the inhibition (Pyruvate kinase PKM [25]) was “Active”. The Activity (HT-29 [26]) was “Active”, the Activity (HT-29 [27]) was “Active” and the Activity (HT-29 [28]) was “Active”. For the same compound, the Activity (HT-29 [29]) was “inactive”, the IC50 (HepG2) was 3900 nM and the Activity (HT-29 [30]) was “Active”. The Activity (SW480 [31]) was “Active”, the Activity (HT-29 [32]) was “Active” and the Activity (SW480 [33]) was “Active”. For the same compound, the inhibition (Pyruvate kinase PKM [34]) was “Active”, the Activity (HT-29 [35]) was “Active” and the Activity (Pyruvate kinase PKM [36]) was “Active”.
